These results are taken from ChEMBL document CHEMBL1201862, “PubChem BioAssay data set” (2004).

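Protocol summary: plate cells (96-well), add compound at 5 concentrations, incubate 48 h, interpolate endpoints linearly. At the GI50, growth is halved.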 Activity calls are given as the source filed them. Rule as the data show it: active = GI50 up to about 1.1 µM and inactive = higher.

What all share (assay): growth of human tumour cells (NCI), 48 h
In assay [1] the test system is SR.
The test system of assay [2] is HOP-92.
The subject of assay [3] is HT-29.
Assay [4] relates to RXF 393.
Assay [5] has as its system TK-10.
Assay [6] deals with A498.
Assay [7] relates to ACHN.
For assay [8], the system named is KM12.
Assay [9] has as its system OVCAR-4.
Assay [10] deals with IGROV-1.
The subject of assay [11] is A549.
The subject of assay [12] is MOLT-4.
The subject of assay [13] is NCI-H226.
The test system of assay [14] is KM-20L2.
The test system of assay [15] is OVCAR-3.
For assay [16], the system named is SF-268.
Assay [17] has as its system SK-MEL-5.
In assay [18] the test system is CAKI-1.
The test system of assay [19] is MDA-N.
Assay [20] relates to NCI/ADR-RES.

Take `CC1=C(C(=O)Nc2ccccc2C)C(c2ccccc2C)C(C(=O)Nc2ccccc2C)=C(C)N1`: the GI50 in [1] was 24.2 µM (inactive); in assay [2], 10.1 µM (inactive); in assay [3] it was 20.3 µM (inactive); in [4], 12.3 µM (inactive); in [5] it was 28.8 µM (inactive); in [6] it was 16.8 µM (inactive). In addition, the GI50 in assay [7] was 15.7 µM (inactive); in [8] it was 18.4 µM (inactive); in [9], 24.4 µM (inactive); in assay [10] it was 18.5 µM (inactive); in [11], 30.6 µM (inactive); in assay [12] it was > 10 µM (inactive). In addition, the GI50 in assay [13] was 21.5 µM (inactive); in [14], 20.9 µM (inactive); in [15], 16.6 µM (inactive); in [16], 20.4 µM (inactive).

Turning to `C[N+]1=c2c3cccc4cccc(c(=O)n2CCC1)c43`, the GI50 in assay [17] was 17.9 µM (inactive); in assay [1], 18.2 µM (inactive); in [2], 28.1 µM (inactive); in assay [3], 20.1 µM (inactive); in assay [4] it was 22.1 µM (inactive); in assay [5], 14.6 µM (inactive). In addition, the GI50 in assay [6] was 18.5 µM (inactive); in [7] it was 22.4 µM (inactive); in assay [18], 31 µM (inactive); in assay [8], 31 µM (inactive); in assay [9], 18.9 µM (inactive); in [10] it was 36 µM (inactive). Besides, the GI50 in assay [11] was 32.2 µM (inactive); in assay [12] it was 19.9 µM (inactive); in assay [13] it was 18.4 µM (inactive); in assay [14] it was 20 µM (inactive); in [15], 22.9 µM (inactive); in [16], 23.5 µM (inactive).

With `[O-][Cl+3]([O-])([O-])O.c1ccc(/N=c2\snc(-c3ccccc3)s2)cc1`, the GI50 in assay [17], in assay [1], in [4], in assay [5], in assay [6] and in assay [7] was > 100 µM (inactive) in each case. For the same compound, the GI50 in assay [18], in [8], in assay [9], in [10], in assay [11] and in assay [12] was > 100 µM (inactive) each time. Further, the GI50 in [13], in [14] and in assay [16] was > 100 µM (inactive) throughout.

As to `O=C(Cc1nc(-c2ccccc2)cc(=O)n1-c1ccccc1Cl)c1ccncc1`, the GI50 in assay [17], in [2], in assay [3], in [4], in assay [5] and in [6] was > 100 µM (inactive) in each case. The GI50 in [7], in assay [18], in assay [8], in assay [9], in [10] and in assay [11] was > 100 µM (inactive) each time. Besides, the GI50 in assay [13], in [14], in assay [15] and in assay [16] was > 100 µM (inactive) in each case.

Turning to `COC(=O)CCC1=NOC(CC2CC(CCC(=O)OC)=NO2)C1` (stereo unspecified), the GI50 in assay [17], in assay [2], in [3], in [4], in assay [5] and in assay [6] was > 100 µM (inactive) throughout. The GI50 in assay [18], in [8], in assay [9], in assay [10], in assay [11] and in assay [12] was > 100 µM (inactive) in each case. Also, the GI50 in assay [13], in [14], in assay [15] and in assay [16] was > 100 µM (inactive) in each case.

On to `COc1ccc2nc3cc(Cl)ccc3c(SCC(=O)Nc3ccccc3-c3ccccc3NC(=O)CSc3c4ccc(Cl)cc4nc4ccc(OC)cc34)c2c1`, for which the GI50 in assay [17], in assay [2], in assay [3], in [4], in [5] and in assay [6] was > 100 µM (inactive) in each case. The GI50 in assay [7], in [18], in [8], in [9], in assay [10] and in [11] was > 100 µM (inactive) each time. The GI50 in [12], in assay [13], in [14], in [15] and in assay [16] was > 100 µM (inactive) each time.

As to `CNC1=Nc2ccc(Cl)cc2C(c2ccccc2)=NN1C`, the GI50 in [17] is 49.1 µM (inactive); in assay [2], 27.6 µM (inactive); in assay [3], 56.5 µM (inactive); in [4] it was 17.5 µM (inactive); in assay [5], 84.3 µM (inactive); in [6], 91.2 µM (inactive). Moreover, the GI50 is > 100 µM (inactive) in [7]; 28.5 µM (inactive) in assay [18]; > 100 µM (inactive) in assay [8]; > 100 µM (inactive) in assay [9]; > 100 µM (inactive) in [10]; > 100 µM (inactive) in assay [11]. The GI50 in assay [12] is 36.2 µM (inactive); in assay [13], > 100 µM (inactive); in assay [14] it was > 100 µM (inactive); in assay [15] it was 45.4 µM (inactive); in [16], 57.9 µM (inactive).

For the compound `COC(=O)C1C(C(=O)OC)C2C(=O)C3C(C(=O)OC)C(C(=O)OC)C3C(=O)C12` (stereo unspecified), the GI50 is > 100 µM (inactive) in assay [1]; 73.5 µM (inactive) in assay [2]; > 100 µM (inactive) in assay [3]; 25.4 µM (inactive) in [4]; > 100 µM (inactive) in assay [5]; > 100 µM (inactive) in assay [6]. The GI50 in assay [7], in assay [18], in [8], in assay [9], in assay [10] and in assay [11] was > 100 µM (inactive) in each case. Besides, the GI50 in assay [12], in [13], in assay [14] and in assay [16] was > 100 µM (inactive) each time.

With `CN/C(=N/C#N)NCc1ccccc1`, the GI50 in assay [17], in [1], in assay [2], in [3], in assay [5] and in [6] was > 100 µM (inactive) throughout. Besides, the GI50 in assay [7], in assay [18], in assay [8], in assay [9], in assay [10] and in assay [11] was > 100 µM (inactive) throughout. Also, the GI50 in assay [12], in assay [13], in assay [14], in assay [15] and in assay [16] was > 100 µM (inactive) in each case.

For `Cc1cccc(-c2cc(=O)c3cc(C)c(C)c(C(=O)O)c3o2)c1`, the GI50 in assay [17], in assay [1], in assay [2], in [3], in assay [5] and in assay [7] was > 100 µM (inactive) throughout. Moreover, the GI50 in assay [18], in assay [8], in [9], in assay [10], in assay [11] and in assay [12] was > 100 µM (inactive) each time. Moreover, the GI50 in assay [13], in assay [14] and in assay [15] was > 100 µM (inactive) in each case.

Take `COC(=O)C1=C(C(=O)OC)SC(=C2SCSC3=C2SC(C(=O)OC)=C(C(=O)OC)C32SC3=C(CCCC3)S2)S1`: the GI50 in assay [17] is > 100 µM (inactive); in assay [1], > 100 µM (inactive); in assay [2], 56.2 µM (inactive); in assay [19], > 100 µM (inactive); in [3] it was > 100 µM (inactive); in assay [20], > 100 µM (inactive). Also, the GI50 in assay [4] is 19.4 µM (inactive); in assay [5], 32.4 µM (inactive); in [6] it was 99.8 µM (inactive); in assay [7], 62.2 µM (inactive); in assay [18], > 100 µM (inactive); in [8] it was > 100 µM (inactive). In addition, the GI50 in assay [9], in [10], in assay [11], in assay [12], in [13] and in [15] was > 100 µM (inactive) in each case. Further, the GI50 in assay [16] was > 100 µM (inactive).

Turning to `c1ccc(C/C(=N\Nc2nc3ccccc3o2)c2ccccn2)cc1`, the GI50 was 0.0769 µM (active) in assay [17]; 0.0424 µM (active) in assay [1]; 0.0281 µM (active) in assay [2]; 0.355 µM (active) in assay [19]; < 0.01 µM (active) in assay [3]; 0.0246 µM (active) in assay [20]. The GI50 is 0.0851 µM (active) in [4]; 0.0668 µM (active) in [5]; 0.369 µM (active) in assay [6]; 0.0202 µM (active) in assay [7]; 0.0879 µM (active) in assay [18]; 0.264 µM (active) in assay [8]. Moreover, the GI50 in [9] was < 0.01 µM (active); in [10] it was 0.0643 µM (active); in [11], 0.437 µM (active); in [12] it was < 0.01 µM (active); in assay [13] it was < 0.0483 µM (active); in [15] it was 0.0137 µM (active). The GI50 in [16] is 0.0805 µM (active).
